Source: paper PMC3914206

Tests used:
Format in all cases: binding
panel of 442 kinases [1] = target: T1, panel of 442 kinases (Homo sapiens, UniProt Q8N4C8); conditions: Compound Concentration 10 µM
T1 construct: purchased KINOMEscan
Source text: (§1) We assessed the selectivity of members of this scaffold using the KINOMEscan methodology across a near comprehensive panel of 442 kinases [[18,27]].

panel of 442 kinases [2] = target: T2, panel of 442 kinases (Homo sapiens, UniProt Q9H093); conditions: kinase SNARK; compound concentration 10 µM
T2 construct: purchased KINOMEscan
T2 sequence (Q9H093 1-628): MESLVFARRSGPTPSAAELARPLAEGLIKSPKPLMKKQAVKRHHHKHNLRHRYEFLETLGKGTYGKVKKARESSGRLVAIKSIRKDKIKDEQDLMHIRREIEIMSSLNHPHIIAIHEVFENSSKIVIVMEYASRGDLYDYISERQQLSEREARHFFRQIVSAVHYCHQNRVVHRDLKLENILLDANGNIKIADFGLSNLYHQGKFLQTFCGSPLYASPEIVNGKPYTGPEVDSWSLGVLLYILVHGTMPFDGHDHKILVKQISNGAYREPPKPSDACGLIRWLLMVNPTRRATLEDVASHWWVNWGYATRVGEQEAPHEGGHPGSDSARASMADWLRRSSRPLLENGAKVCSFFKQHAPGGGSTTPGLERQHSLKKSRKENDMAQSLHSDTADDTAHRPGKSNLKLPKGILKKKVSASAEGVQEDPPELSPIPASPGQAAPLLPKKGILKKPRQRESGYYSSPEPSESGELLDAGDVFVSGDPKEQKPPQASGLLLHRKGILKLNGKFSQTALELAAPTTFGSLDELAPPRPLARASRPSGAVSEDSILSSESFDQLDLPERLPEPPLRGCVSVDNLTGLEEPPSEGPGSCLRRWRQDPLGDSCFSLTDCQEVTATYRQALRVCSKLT
Source text: as §1

panel of 442 kinases [3] = target: T3, panel of 442 kinases (Homo sapiens, UniProt Q9NY57); conditions: kinase YANK2; compound concentration 10 µM
T3 construct: purchased KINOMEscan
Source text: as §1

T3 sequence (Q9NY57 whole entry): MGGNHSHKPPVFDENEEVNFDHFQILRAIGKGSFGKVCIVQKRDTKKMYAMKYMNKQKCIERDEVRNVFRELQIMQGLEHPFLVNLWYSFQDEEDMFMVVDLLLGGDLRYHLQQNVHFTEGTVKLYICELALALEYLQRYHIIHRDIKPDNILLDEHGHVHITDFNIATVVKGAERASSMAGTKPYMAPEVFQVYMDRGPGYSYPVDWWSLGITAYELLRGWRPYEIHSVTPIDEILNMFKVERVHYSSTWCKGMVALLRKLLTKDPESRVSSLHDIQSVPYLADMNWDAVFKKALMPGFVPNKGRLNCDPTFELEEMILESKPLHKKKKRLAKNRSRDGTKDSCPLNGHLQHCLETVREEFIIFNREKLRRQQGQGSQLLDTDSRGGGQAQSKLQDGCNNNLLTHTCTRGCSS
T1 sequence (Q8N4C8 whole entry): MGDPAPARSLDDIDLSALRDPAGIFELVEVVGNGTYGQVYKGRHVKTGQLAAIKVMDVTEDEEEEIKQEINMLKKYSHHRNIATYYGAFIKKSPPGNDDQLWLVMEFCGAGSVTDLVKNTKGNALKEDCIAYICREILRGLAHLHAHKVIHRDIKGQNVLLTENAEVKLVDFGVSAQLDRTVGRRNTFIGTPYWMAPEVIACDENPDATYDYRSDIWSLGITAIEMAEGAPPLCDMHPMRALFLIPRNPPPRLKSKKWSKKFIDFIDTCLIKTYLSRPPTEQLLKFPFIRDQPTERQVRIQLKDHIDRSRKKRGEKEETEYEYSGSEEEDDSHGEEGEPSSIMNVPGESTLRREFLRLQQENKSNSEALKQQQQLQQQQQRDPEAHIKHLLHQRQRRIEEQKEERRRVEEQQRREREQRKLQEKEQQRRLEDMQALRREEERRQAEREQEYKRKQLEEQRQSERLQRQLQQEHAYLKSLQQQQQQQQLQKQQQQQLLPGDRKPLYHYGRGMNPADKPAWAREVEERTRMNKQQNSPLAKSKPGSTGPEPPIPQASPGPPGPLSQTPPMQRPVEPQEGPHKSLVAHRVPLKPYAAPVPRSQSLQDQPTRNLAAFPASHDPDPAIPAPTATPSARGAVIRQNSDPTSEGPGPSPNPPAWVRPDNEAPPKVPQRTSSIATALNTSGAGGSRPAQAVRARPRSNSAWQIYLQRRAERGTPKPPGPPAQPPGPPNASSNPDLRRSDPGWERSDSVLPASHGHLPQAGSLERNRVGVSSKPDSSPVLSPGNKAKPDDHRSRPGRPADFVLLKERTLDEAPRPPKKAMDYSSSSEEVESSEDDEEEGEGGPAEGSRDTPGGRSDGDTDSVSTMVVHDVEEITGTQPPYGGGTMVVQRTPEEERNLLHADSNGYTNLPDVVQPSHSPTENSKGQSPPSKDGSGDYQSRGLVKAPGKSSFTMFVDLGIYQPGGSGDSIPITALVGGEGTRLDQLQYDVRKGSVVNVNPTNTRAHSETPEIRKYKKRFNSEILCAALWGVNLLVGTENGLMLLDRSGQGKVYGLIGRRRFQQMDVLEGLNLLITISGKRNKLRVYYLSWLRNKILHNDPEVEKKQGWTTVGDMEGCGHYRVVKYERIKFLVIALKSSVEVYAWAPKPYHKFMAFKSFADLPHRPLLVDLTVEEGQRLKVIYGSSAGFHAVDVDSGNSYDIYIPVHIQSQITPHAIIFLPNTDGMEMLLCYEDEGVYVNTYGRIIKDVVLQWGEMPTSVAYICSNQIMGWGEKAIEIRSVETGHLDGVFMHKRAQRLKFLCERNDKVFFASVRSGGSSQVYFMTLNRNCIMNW

Row | Structure (SMILES) | KINOMEscan: MINK (panel of 442 kinases [1]) | % Ctrl, SNARK (panel of 442 kinases [2]) [% Ctrl] | % Ctrl, YANK2 (panel of 442 kinases [3]) [% Ctrl]
1 | COc1cc(C(=O)N2CCC(N3CCN(C)CC3)CC2)ccc1Nc1ncc2c(n1)N(C)c1ccccc1C(=O)N2C [15 (LRRK2-IN-1)] | 77 | 47 | 100
2 | COc1cc(C(=O)N2CCC(N3CCN(C)CC3)CC2)ccc1Nc1ncc2c(n1)N1CCc3cccc(c31)C(=O)N2C [Compound 24] | 36 | 74 | 100
3 | COc1cc(C(=O)N2CCC(N3CCN(C)CC3)CC2)ccc1Nc1ncc2c(n1)N(C1CCCC1)c1ccccc1C(=O)N2C [Compound 25, 11-cyclopentyl-2-((2-methoxy-4-(4-(4-methylpiperazin-1-yl)piperidine-1-carbonyl)phenyl)amino)-5-methyl-5H-benzo[e]pyrimido[5,4-b][1,4]diazepin-6(11H)-one] | 100 | 100 | 100
4 | CCOc1cc(C(=O)N2CCC(N3CCN(C)CC3)CC2)ccc1Nc1ncc2c(n1)N(C1CCCC1)c1ccccc1C(=O)N2C [Compound 26] | 100 | 96 | 100
